Where a name gives a salt, the structure may show the parent alone.
What was measured:
MCF7-Cas9 = assay: Growth suppression assay (resazurin); format: cell-based; conditions: 48 hours of incubation
Description: (§1) Breast, colon, ovarian, cervical, liver and lung carcinoma cell lines were grown in DMEM supplemented with 10% FBS, and antibiotics were cultured at 37 °C and 5% CO2. […] To obtain an oxygen concentration of 0.05%, the cells were flushed with the premixed gas continuously throughout the experiment.
(§2) Cells were grown in 96-well plates at a density of 3000 cells per well with or without doxycycline and treated with compounds. After 48 hours of incubation the proliferative cell reagent resazurin (Thermo Fisher Scientific) was added to the cells. The degree of resazurin reduction, which reflects cell viability, was measured by microplate reader by monitoring the absorbance at 570 nm and 600 nm, according to the manufacturer.

HCT116-Cas9 = assay: Growth suppression assay (resazurin); format: cell-based; conditions: 48 hours of incubation
Description: as §1, §2

Solubility (solvent) = format: physicochemical; conditions: solvent named in the table
TrxRl = TrxRl (Homo sapiens, UniProt Q16881); conditions: cell extracts and crystal structure of tetrameric TrxRl; earlier publication of the applicants; cited from earlier work
Chain of TrxRl (Q16881 151-649): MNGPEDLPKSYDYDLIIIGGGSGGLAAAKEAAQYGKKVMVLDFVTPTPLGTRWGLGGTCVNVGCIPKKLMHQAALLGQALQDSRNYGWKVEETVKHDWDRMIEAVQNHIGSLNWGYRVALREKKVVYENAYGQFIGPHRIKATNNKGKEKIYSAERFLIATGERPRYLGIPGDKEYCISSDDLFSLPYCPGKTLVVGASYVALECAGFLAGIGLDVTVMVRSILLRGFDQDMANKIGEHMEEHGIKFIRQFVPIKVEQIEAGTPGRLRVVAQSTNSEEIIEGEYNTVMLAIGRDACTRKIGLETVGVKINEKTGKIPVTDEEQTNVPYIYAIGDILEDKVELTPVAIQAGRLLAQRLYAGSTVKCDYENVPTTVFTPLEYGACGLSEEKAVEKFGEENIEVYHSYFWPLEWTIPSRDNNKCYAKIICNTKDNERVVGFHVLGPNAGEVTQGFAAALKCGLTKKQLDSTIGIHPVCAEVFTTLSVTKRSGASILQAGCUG

## N#Cc1c(-c2ccncc2)[n+]([O-])c2cc(N3CCOCC3)c(F)cc2[n+]1[O-] [1a*MsOH, 7-Fluoro-6-(morpholin-4-yl)-3-(pyridin-4-yl)quinoxaline-2-carbonitrile-1,4-dioxide methanesulfonate]
MCF7-Cas9; methanesulfonate
  IC50: 2.4 µM
HCT116-Cas9; methanesulfonate
  IC50: 1.2 µM

## N#Cc1c(-c2ccncc2)[n+]([O-])c2cc(F)c(N3CCOCC3)cc2[n+]1[O-] [1b*HCl, 6-Fluoro-7-(morpholin-4-yl)-3-(pyridin-4-yl)quinoxaline-2-carbonitrile-1,4-dioxide hydrochloride]
MCF7-Cas9; hydrochloride
  IC50: 3.8 µM
HCT116-Cas9; hydrochloride
  IC50: 3.2 µM

## N#Cc1c(-c2ccncc2)[n+]([O-])c2cc(F)c(N3CCOCC3)cc2[n+]1[O-] [1b*MsOH, 6-Fluoro-7-(morpholin-4-yl)-3-(pyridin-4-yl)quinoxaline-2-carbonitrile-1,4-dioxide methanesulfonate]
MCF7-Cas9; methanesulfonate
  IC50: 4.2 µM

## N#Cc1c(-c2cccnc2)[n+]([O-])c2cc(N3CCOCC3)c(F)cc2[n+]1[O-] [1c*HCl, 7-Fluoro-6-(morpholin-4-yl)-3-(pyridin-3-yl)quinoxaline-2-carbonitrile-1,4-dioxide hydrochloride]
MCF7-Cas9; 48 h
  IC50: > 10 µM
HCT116-Cas9; hydrochloride
  IC50: 10.9 µM

## N#Cc1c(-c2ccncc2)[n+]([O-])c2cc(N3CCOCC3)c(F)cc2[n+]1[O-] [Compound 1a, 7-Fluoro-6-(morpholin-4-yl)-3-(pyridin-4-yl)quinoxaline-2-carbonitrile 1,4-dioxide]
MCF7-Cas9
  IC50: 6.9 µM
HCT116-Cas9
  IC50: 3.5 µM
Solubility (solvent)
  Solubility: Warm DMSO

## N#Cc1c(-c2ccncc2)[n+]([O-])c2cc(F)c(N3CCOCC3)cc2[n+]1[O-] [Compound 1b, 6-Fluoro-7-(morpholin-4-yl)-3-(pyridin-4-yl)quinoxaline-2-carbonitrile-1,4-dioxide]
MCF7-Cas9; 48 h
  IC50: 4.1 µM
HCT116-Cas9; 48 h
  IC50: 2.8 µM
Solubility (solvent)
  Solubility: Warm DMSO

## N#Cc1c(-c2cccnc2)[n+]([O-])c2cc(N3CCOCC3)c(F)cc2[n+]1[O-] [Compound 1c, 7-Fluoro-6-(morpholin-4-yl)-3-(pyridin-3-yl)quinoxaline-2-carbonitrile-1,4-dioxide]
HCT116-Cas9
  IC50: 3.3 µM
Solubility (solvent)
  Solubility: Warm DMSO

## N#Cc1c(-c2cccnc2)[n+]([O-])c2cc(F)c(N3CCOCC3)cc2[n+]1[O-] [Compound 1d, 6-Fluoro-7-(morpholin-4-yl)-3-(pyridin-3-yl)quinoxaline-2-carbonitrile-1,4-dioxide]
HCT116-Cas9
  IC50: 4.1 µM
Solubility (solvent)
  Solubility: Warm DMSO

## N#Cc1c(-c2cccnc2)[n+]([O-])c2cc(F)c(N3CCCC3)cc2[n+]1[O-] [Compound 1f, 6-Fluoro-7-(pyrrolidin-1-yl)-3-(pyridin-3-yl)quinoxaline-2-carbonitrile-1,4-dioxide]
MCF7-Cas9; 48 h
  IC50: 3.8 µM
HCT116-Cas9; 48 h
  IC50: 2.2 µM
Solubility (solvent)
  Solubility: Warm DMSO

## N#Cc1c(-c2cccnc2)[n+]([O-])c2cc(F)c(N3CCCCC3)cc2[n+]1[O-] [Compound 1g, 6-Fluoro-7-(piperidin-1-yl)-3-(pyridin-3-yl)quinoxaline-2-carbonitrile-1,4-dioxide]
MCF7-Cas9; 48 h
  IC50: 4.1 µM
HCT116-Cas9; 48 h
  IC50: 2.8 µM
Solubility (solvent)
  Solubility: Warm DMSO

## OCc1ccc(-c2ccc(-c3ccc(CO)s3)o2)s1 [RITA]
TrxRl
  covalent link between TrxRl subunits: induced the formation of a covalent link between two oxidized Trp114 residues

— EP4201929A1, “QUINOXALINE THIOREDOXIN REDUCTASE INHIBITORS” (geneXplain GmbH, priority 2021, dated 2023)
